Consider 1 molecule from patent EP3952873B1 (priority 2019, dated 2020).

The test system of one data set is GABAA receptors. The experiment in a line: Affinity for GABAA receptors. The data set is classed as binding.
Another data set concerns mice. The data set is classed as in vivo. To be noted: 100 mg/kg i.p. As to the method: To determine locomotor effects (e.g. sedation or hyperactivity) compounds were assessed after systemic administration to mice. Mice (typically n=5-8) were administered selected compounds, e.g. JON-11 and pro-JON-11 and vehicle controls, and placed in transparent cages (L: 37 cm x W: 21 cm x H: 15 cm). Locomotor activity were measured via a camera mounted above the arena. Mice will be recorded for 45 min and data collected in 5-min intervals. Data will be stored on a computer equipped with Ethovision XT (Noldus).

A further data set is described as follows: in vivo. More on the design: species or system mice. The note with it: male, C57BL/6JRj, mouse, ip, 10 mg/kg. As to the method: To evaluate the ability of pro-JON-11 (10) and JON-11 to penetrate the blood-brain barrier, a brain-to-plasma distribution ratio (B/P ratio) was obtained. All subjects were male C57BL/6JRj mice (24-26 g, Janvier Labs, France) housed in groups of three-four with ad libitum access to food and water. The mice were maintained under diurnal conditions (12-h light/dark cycle with lights on at 7 AM) in a temperature (22±1 °C) and humidity-controlled room (50±10%). Ethical permission for the procedures used in this in vivo study was granted by the Danish Animal Experiments Inspectorate.
Compounds were dissolved in PEG-400 (Sigma) at 20% of the final required volume. The final volume was then made up by 10% (w/v) hydroxypropyl-beta-cyclodextrin (Sigma Aldrich) in sterile saline. The solution was sonicated for 5 min. The JON-11 solution was pH-adjusted to 7.4 with 0.2% 2M NaOH.
Both compounds were injected i.p. at a dose of 10 mg/kg (n=3 for each compound). […] After 30 min, the animals were sacrificed by decapitation, trunk blood was collected in EDTA-coated tubes and the brain was gently removed. Blood and tissues were temporarily stored on ice until plasma and brain homogenate preparation. Blood plasma was separated from cells by centrifugation for 10 min at 1,500 x g at 4 °C and plasma harvested. […]
Plasma and brain exposure of JON-11 and pro-JON-11 were evaluated in male mice. […]

The structures appear in SMILES notation.

Consider `O=C(O)Cc1cn2nc(-c3ccc(Cl)cc3)ccc2n1` [JON-11, 2-(6-(4-Chlorophenyl)imidazo[1,2-b]pyridazin-2-yl)acetic acid], for which the “affinity for GABAA receptors” value in the data set with GABAA receptors is reported as “weak affinity”. For the same molecule, the locomotor activity result in the data set on mice is given as “does not affect locomotor activity”. In the data set “in vivo”, the Kp at 30 min was found to be 0.05.
